Reference: ChEMBL document CHEMBL1135890, “Structure-activity relationships of 2'-fluoro-2',3'-unsaturated D-nucleosides as anti-HIV-1 agents” (J Med Chem, 2002)

Molecular target: Adenosine deaminase (Bos taurus) (UniProt P56658)
Experiment: Michaelis constant was determined against mammalian Adenosine deaminase; NS = not a substrate of adenosine deaminase

Sequence of Adenosine deaminase (Bos taurus) (P56658 whole entry, looked up): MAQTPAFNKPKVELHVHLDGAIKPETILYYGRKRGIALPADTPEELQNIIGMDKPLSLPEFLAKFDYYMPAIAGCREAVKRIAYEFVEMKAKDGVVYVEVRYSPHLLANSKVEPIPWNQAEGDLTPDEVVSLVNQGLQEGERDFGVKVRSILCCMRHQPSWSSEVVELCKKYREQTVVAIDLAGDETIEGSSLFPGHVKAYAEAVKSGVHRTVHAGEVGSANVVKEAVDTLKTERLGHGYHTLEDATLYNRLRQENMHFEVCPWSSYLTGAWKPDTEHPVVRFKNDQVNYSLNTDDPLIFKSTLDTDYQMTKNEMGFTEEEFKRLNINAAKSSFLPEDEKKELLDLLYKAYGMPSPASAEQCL

Nc1ncnc2c1ncn2[C@@H]1O[C@H](CO)C=C1F
NS: Not a substrate
